According to US8039639B2, “Kinase inhibitors and methods of use thereof” (Array BioPharma Inc., priority 2006, dated 2011):
“Also recorded” adds a separate entry of the source.

Key:
micronucleus = test: Micronucleus assay (in vitro); assay type: cell-based
Procedure: hERG assay was performed using a standard patch clamp protocol. AMES assay (bacterial reverse mutation assay) was performed according to protocol. […] In vitro and in vivo micronucleus assays were performed according to protocol.

Erk and AKT = test: phospho-Erk and phospho-AKT in Ang-1 stimulated HUVECs; assay type: cell-based; settings: Homo sapiens, HUVEC, 10 min, 200 ng/mL Ang-1 for 10 minutes, read-out: IC50, downstream effectors Erk and AKT
Text: (§1) Tie2 was then immunopurified (IP) and immunoblotted with anti-phosphotyrosine (pTyr) and anti-Tie2 antibodies to assess the degree of Tie2 autophosphorylation. Lysates were immunoblotted with anti-phospho-Erk and anti-phospho-AKT (Ser473) antibodies, respectively. Signals were quantified and normalized to GAPDH as a loading control. The results were shown in an immunoblot and a graph.

Tie2 [1] = target: T1, Tie2 (Homo sapiens, UniProt Q02763); test: Tie2 autophosphorylation in Ang-1 stimulated HUVECs; assay type: cell-based; set-up: endogenous in cells; host or cells: HUVEC; settings: 200 ng/mL Ang-1 for 10 minutes
Text: as §1
Target sequence in this assay (Q02763 23-1124): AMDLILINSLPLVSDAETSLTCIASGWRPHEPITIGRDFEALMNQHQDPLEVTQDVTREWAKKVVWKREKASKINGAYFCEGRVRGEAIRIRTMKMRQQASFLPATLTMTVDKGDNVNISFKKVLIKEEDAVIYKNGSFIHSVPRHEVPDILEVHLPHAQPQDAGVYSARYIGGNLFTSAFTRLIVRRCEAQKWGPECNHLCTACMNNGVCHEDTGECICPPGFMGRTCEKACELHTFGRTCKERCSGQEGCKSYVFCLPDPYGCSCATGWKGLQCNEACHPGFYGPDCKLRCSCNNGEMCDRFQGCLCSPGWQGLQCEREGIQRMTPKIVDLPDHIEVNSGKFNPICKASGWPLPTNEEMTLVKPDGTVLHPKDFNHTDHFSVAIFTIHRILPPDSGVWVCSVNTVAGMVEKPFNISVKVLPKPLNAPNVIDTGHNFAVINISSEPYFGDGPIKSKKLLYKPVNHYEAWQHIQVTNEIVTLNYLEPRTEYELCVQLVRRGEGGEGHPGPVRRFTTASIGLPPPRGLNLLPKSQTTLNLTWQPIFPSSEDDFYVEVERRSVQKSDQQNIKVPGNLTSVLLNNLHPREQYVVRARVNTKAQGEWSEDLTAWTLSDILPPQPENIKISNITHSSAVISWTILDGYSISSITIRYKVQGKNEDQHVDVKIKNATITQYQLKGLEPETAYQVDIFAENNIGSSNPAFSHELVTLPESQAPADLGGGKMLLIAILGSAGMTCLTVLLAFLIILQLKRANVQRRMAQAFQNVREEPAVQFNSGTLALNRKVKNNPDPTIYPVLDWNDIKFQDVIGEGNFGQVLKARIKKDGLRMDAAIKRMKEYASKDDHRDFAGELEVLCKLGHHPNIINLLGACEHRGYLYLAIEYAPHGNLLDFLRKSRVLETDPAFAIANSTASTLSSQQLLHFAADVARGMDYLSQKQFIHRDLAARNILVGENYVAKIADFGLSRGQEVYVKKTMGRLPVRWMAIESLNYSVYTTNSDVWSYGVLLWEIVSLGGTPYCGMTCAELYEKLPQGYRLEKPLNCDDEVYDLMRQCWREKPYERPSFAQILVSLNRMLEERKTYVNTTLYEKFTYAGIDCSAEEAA

[2] = 14-day tolerability study in mice; assay type: in vivo; settings: 14 days, dosed as Compound 74
Procedure: Weight loss was assessed throughout study. Blood was removed on the final day for clinical chemistries (albumin, alkaline phosphatase, ALT, Amylase, BUN, calcium, cholesterol, creatinine, glucose, phosphate, total bilirubin, TP, Globulin).

RPMI 8226 = RPMI 8226 cell viability (CellTiter Blue); assay type: cell-based; settings: RPMI 8226, 72 hours
Procedure: Cell viability was then measured using CellTiter Blue (Promega) to determine IC50 values for each compound (Table 8). […] MG-132 produced an IC50 that was within historical ranges of in-house testing (Table 8).

Tie2 [3] = target: T1, Tie2; test: protein kinase IC50 determination (ATP at Km); assay type: biochemical; settings: ATP concentration at Km
Target sequence in this assay (Q02763 23-1124, species assumed): as the sequence (Q02763 23-1124) above

CYP2C19 = target: T2, CYP2C19 (Homo sapiens, UniProt P33261); test: CYP inhibition assay (LC/MS, pooled human liver microsomes); assay type: in vitro ADME; settings: n=1, read-out: CYPC19 IC50
T2 construct: using pooled human liver microsomes (n=1); from tissue; host or cells: pooled human liver microsomes

VEGFR = VEGFR (Homo sapiens, UniProt P35968); test: protein kinase IC50 determination (ATP at Km); assay type: biochemical; settings: ATP concentration at Km
CYP2D6 = CYP2D6 (Homo sapiens, UniProt P10635); test: CYP inhibition assay (fluorescent probe, recombinant protein); assay type: in vitro ADME; settings: n=1
Arg = Arg (Homo sapiens, UniProt P42684); test: protein kinase IC50 determination (ATP at Km); assay type: biochemical; settings: ATP concentration at Km
Fyn = Fyn (Homo sapiens, UniProt P06241); test: protein kinase IC50 determination (ATP at Km); assay type: biochemical; settings: ATP concentration at Km
FGFR1 = FGFR1 (Homo sapiens, UniProt P11362); test: protein kinase IC50 determination (ATP at Km); assay type: biochemical; settings: ATP concentration at Km
RPMI 8226 cells = test: RPMI 8226 multiple myeloma tumor model; assay type: in vivo, Female Scid-beige mice
Procedure: Female Scid-beige mice (17-20 g), n=8 per group, were implanted with 15×10^6 RPMI 8226 cells subcutaneously on the right flank with either vehicle (20% Trappsol, 10 mL/kg, PO, BID×14) or Compound 74 (100 mg/kg active drug, PO, BID×14). Test compounds were administered by oral gavage at the indicated doses and schedules when tumors reached 200±50 mm^3 in size.

p38 pathway = test: HeLa cell phospho-HSP27 assay, anisomycin-stimulated; assay type: cell-based; settings: Homo sapiens; HeLa cells, 60 min pretreatment, 1 μg/mL anisomycin 60 min; read-out: apparent IC50, p38 pathway in cells (phospho-HSP27 Ser78)
Text: Cells were labeled with antibodies against the phosphorylated form of HSP27 (Ser78) and GAPDH as a normalization control. Cells were imaged and quantified using a LI-COR Aeriustm imager.

[4] = tested on: TNF-α production in whole blood; test: TNF-α production in LPS-treated whole blood (ELISA); assay type: cell-based; settings: whole blood treated with LPS, read-out: apparent IC50, inhibition of TNF-α production
Lyn = Lyn (Homo sapiens, UniProt P07948); test: protein kinase IC50 determination (ATP at Km); assay type: biochemical; settings: ATP concentration at Km
Abl = Abl (Homo sapiens, UniProt P00519); test: protein kinase IC50 determination (ATP at Km); assay type: biochemical; settings: ATP concentration at Km
[5] = CD-1 mice, 10, 30 and 100 mg/kg BID, all dose groups

T2 sequence (P33261 whole entry): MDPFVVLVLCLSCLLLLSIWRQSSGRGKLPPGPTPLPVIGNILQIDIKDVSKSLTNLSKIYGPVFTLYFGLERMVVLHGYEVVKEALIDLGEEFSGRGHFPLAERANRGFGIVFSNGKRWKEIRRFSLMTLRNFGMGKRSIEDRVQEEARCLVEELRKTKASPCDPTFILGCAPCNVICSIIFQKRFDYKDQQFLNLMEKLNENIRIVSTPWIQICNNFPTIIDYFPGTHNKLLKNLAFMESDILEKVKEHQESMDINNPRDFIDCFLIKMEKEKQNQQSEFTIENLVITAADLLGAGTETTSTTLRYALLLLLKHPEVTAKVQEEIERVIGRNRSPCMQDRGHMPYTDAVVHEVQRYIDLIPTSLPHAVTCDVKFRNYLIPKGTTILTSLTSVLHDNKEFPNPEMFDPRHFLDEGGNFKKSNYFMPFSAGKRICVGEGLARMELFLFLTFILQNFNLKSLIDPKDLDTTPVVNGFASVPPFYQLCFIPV
Sequence of Abl (P00519 whole entry, species assumed): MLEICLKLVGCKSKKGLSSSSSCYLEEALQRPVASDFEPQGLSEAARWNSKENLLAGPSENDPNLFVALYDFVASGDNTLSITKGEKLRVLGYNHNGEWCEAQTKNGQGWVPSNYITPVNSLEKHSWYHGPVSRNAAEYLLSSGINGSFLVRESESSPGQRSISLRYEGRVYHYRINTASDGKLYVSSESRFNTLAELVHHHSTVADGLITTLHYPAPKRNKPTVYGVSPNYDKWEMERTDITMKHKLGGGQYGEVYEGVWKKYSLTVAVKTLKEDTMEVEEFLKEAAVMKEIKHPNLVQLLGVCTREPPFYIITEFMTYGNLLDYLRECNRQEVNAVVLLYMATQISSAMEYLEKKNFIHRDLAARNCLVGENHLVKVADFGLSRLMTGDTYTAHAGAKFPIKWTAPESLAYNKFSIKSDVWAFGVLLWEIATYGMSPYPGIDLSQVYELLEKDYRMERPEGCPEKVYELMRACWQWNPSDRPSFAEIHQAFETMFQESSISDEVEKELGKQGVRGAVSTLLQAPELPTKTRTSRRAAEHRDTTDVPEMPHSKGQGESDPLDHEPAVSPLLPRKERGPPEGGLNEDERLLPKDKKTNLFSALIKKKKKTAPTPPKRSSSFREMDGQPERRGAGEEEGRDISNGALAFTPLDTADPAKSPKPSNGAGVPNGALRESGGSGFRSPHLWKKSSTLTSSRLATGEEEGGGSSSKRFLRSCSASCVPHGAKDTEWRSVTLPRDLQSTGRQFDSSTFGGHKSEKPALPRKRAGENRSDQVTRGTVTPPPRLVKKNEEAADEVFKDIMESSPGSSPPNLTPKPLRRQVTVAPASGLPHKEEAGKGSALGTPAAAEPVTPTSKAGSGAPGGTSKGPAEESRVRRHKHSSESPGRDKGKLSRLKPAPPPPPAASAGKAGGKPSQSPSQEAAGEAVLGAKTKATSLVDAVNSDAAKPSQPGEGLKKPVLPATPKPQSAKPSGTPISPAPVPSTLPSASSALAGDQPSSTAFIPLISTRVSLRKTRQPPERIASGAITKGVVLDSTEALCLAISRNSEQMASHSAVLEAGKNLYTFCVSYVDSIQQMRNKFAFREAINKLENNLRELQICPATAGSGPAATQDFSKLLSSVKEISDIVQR
Sequence of CYP2D6 (P10635 whole entry, species assumed): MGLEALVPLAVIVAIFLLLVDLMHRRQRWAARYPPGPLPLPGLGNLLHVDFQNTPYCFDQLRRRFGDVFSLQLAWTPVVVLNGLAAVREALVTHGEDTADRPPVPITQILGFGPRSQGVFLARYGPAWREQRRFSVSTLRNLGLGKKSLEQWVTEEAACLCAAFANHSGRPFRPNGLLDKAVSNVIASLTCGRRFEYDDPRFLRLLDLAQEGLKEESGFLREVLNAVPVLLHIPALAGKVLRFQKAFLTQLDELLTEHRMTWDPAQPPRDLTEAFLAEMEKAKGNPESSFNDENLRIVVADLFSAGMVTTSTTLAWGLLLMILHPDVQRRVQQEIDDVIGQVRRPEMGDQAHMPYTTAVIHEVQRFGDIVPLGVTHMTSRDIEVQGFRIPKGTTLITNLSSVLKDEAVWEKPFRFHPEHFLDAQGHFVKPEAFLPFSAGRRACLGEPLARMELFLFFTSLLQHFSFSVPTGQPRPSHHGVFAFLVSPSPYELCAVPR
Sequence of Fyn (P06241 whole entry, species assumed): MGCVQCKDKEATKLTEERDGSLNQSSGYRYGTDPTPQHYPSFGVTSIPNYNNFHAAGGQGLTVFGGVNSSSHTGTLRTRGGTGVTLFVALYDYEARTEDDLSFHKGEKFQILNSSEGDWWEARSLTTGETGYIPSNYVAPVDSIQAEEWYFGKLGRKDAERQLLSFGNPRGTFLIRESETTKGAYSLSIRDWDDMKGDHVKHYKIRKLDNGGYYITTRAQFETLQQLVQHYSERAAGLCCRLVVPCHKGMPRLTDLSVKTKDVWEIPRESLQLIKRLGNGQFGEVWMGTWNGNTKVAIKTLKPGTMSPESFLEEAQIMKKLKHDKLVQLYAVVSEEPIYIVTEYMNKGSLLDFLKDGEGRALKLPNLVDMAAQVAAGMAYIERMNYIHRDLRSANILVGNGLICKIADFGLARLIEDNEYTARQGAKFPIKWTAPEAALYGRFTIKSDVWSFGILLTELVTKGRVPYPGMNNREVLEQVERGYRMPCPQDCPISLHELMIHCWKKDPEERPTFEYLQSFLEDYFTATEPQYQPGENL
Sequence of Arg (P42684 whole entry): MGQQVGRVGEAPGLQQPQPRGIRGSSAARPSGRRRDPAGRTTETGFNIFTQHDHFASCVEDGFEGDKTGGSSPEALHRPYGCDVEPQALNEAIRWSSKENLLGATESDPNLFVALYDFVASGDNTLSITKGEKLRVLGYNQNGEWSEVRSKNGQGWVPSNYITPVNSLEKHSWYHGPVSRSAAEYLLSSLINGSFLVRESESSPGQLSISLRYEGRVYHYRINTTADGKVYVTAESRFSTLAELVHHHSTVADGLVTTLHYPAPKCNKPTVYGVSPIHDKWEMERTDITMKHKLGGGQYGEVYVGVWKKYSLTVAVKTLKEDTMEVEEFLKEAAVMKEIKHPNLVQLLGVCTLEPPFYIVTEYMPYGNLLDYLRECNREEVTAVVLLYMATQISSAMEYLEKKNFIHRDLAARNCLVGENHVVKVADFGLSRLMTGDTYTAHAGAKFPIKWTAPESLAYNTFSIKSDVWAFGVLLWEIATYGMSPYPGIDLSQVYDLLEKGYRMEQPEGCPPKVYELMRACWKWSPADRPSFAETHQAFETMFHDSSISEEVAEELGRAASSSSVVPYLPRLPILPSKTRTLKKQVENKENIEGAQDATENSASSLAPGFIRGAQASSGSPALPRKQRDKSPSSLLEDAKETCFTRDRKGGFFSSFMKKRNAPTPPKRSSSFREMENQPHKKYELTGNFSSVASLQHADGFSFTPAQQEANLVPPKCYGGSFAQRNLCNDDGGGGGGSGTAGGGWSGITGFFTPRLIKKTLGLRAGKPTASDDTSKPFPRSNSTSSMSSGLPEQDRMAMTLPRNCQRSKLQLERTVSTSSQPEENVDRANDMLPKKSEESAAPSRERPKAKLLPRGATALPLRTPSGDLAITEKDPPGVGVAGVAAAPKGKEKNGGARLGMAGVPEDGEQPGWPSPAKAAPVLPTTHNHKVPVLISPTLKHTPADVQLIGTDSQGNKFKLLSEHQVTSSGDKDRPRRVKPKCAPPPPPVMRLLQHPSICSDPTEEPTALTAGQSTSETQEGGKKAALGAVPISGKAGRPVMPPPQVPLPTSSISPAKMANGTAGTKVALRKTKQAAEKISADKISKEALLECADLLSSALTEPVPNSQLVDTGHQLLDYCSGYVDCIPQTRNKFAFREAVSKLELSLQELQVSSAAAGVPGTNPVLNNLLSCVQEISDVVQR

What does the source list for `Cc1ccc(-n2nc(C(C)(C)C)cc2NC(=O)NCc2cc(F)ccc2Oc2ccc3c(cnn3CCO)c2)cc1` [Compound 72, 1-(3-tert-butyl-1-p-tolyl-1H-pyrazol-5-yl)-3-(5-fluoro-2-(1-(2-hydroxyethyl)-1H-indazol-5-yloxy)benzyl)urea]?
Micronucleus (in vitro) (micronucleus): Negative; IC50 (Erk and AKT): < 11 nM; IC50 (Tie2 [1]): < 33 nM; Clinical chemistries [2, 5]: Within normal range (all dose groups); Weight loss [2, 5]: <5% (all dose groups); dose-limiting toxicities (DLTs) ([2]; CD-1 mice, up to 100 mg/kg BID): no dose-limiting toxicities (DLTs) were seen; also recorded: no observed DLTs; IC50 (RPMI 8226; Homo sapiens, read-out: Proliferation IC50): > 10000 nM; anti-proliferative effect (RPMI 8226; over the indicated concentration range): not anti-proliferative; IC50 (Tie2 [3]): 1 nM; IC50 (CYP2C19): 25000 nM; IC50 (VEGFR): 74 nM; IC50 (CYP2D6): 3000 nM; IC50 (Arg): 10 nM; IC50 (Fyn): 41 nM; IC50 (FGFR1): 28 nM; body weight loss (RPMI 8226 cells; RPMI 8226 tumor-bearing Scid-beige mice, throughout treatment): less than 10%; effect on tumor growth (RPMI 8226 cells; RPMI 8226 tumors, 100 mg/kg PO, BID×14, dosed as Compound 74): statistically significant effect on tumor growth; % Tumor growth inhibition (TGI) (RPMI 8226 cells; RPMI 8226 tumors, 100 mg/kg active drug, PO, BID×14, dosed as Compound 74): 67%; IC50 (p38 pathway): 2 nM; IC50 [4]: 30 nM; IC50 (Lyn): 25 nM; IC50 (Abl): 4 nM
